{"source": "paper PMC4669708", "about": "(Cell Death & Disease, 2015)", "assay_in_all_cases": "c-ponatinib pulldown LC-MS/MS", "type_in_all_cases": "binding", "key": {"HSPA5": {"target": "HSPA5 (Homo sapiens, UniProt P11021)", "sequence (P11021 19-654)": "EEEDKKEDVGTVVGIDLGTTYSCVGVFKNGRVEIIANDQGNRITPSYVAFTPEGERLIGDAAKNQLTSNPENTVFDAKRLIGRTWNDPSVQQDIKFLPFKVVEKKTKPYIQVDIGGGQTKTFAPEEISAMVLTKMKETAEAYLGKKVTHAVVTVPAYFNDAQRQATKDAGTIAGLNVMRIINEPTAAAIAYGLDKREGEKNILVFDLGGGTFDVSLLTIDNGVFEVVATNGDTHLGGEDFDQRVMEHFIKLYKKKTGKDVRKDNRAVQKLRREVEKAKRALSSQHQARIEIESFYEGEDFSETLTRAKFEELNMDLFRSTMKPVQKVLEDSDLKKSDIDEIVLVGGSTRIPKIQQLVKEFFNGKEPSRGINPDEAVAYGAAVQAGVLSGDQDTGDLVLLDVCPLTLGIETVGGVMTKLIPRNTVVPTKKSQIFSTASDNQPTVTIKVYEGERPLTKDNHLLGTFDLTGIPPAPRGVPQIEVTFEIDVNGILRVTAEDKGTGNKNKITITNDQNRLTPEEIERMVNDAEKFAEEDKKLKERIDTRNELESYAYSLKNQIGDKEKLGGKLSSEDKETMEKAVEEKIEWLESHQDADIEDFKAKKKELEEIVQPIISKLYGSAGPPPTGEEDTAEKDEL", "summary_of_the_method": "(§1)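 c-Ponatinib (25 nmol) immobilized on NHS-Sepharose was incubated with 10 mg whole cell lysate per replicate, in duplicate. Eluates were reduced, alkylated, trypsin-digested and analysed by gel-free 1D LC-MS/MS. Specificity was scored from Mascot, Phenyx and spectral counts, with competition by free compound.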"}, "PAG1": {"target": "T1, PAG1 (Homo sapiens, UniProt Q9NWQ8)", "T1 sequence (Q9NWQ8 1-432)": "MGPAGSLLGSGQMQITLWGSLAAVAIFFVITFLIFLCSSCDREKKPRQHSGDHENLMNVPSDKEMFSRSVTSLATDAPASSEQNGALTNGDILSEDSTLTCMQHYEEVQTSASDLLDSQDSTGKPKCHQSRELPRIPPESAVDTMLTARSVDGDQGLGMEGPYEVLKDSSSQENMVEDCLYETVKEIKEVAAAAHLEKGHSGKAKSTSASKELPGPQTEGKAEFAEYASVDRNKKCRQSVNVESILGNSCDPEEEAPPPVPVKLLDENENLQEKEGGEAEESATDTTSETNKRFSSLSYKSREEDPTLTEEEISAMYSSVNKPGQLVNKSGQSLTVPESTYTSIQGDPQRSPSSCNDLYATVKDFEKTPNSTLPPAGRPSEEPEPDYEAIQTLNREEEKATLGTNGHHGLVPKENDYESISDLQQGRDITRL", "summary_of_the_method": "as §1"}, "MAPKAPK2": {"target": "MAPKAPK2 (Homo sapiens, UniProt P49137)", "sequence (P49137 whole entry)": "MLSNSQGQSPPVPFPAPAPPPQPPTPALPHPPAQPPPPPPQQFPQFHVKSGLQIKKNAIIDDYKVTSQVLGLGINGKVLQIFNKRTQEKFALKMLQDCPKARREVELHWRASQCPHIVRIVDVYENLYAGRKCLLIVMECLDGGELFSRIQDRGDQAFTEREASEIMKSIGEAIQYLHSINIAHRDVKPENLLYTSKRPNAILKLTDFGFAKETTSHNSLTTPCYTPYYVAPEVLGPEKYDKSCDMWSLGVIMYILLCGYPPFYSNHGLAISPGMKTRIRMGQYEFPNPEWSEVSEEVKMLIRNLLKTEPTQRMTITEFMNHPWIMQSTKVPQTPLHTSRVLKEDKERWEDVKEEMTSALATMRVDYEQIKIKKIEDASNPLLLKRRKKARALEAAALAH", "summary_of_the_method": "as §1"}, "HSPA9": {"target": "HSPA9 (Homo sapiens, UniProt P38646)", "sequence (P38646 47-679)": "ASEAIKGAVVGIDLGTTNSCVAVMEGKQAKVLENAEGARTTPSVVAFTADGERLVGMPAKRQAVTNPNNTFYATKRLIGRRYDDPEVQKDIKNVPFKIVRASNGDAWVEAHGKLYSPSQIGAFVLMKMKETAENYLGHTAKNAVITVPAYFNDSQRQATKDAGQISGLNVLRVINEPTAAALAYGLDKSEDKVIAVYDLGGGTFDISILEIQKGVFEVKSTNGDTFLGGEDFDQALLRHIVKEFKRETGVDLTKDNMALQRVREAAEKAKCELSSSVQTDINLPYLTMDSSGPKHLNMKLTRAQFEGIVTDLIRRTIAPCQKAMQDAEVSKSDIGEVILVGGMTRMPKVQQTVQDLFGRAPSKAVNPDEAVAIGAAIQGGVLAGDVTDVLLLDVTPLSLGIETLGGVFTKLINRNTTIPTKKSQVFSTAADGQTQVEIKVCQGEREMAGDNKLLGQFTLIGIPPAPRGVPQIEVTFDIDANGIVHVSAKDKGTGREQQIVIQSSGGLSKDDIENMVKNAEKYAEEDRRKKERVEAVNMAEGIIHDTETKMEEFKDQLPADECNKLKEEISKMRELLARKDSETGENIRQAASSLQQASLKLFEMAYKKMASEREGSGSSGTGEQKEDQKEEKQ", "summary_of_the_method": "as §1"}, "JAK2": {"target": "JAK2 (Homo sapiens, UniProt O60674)", "sequence (O60674 whole entry)": "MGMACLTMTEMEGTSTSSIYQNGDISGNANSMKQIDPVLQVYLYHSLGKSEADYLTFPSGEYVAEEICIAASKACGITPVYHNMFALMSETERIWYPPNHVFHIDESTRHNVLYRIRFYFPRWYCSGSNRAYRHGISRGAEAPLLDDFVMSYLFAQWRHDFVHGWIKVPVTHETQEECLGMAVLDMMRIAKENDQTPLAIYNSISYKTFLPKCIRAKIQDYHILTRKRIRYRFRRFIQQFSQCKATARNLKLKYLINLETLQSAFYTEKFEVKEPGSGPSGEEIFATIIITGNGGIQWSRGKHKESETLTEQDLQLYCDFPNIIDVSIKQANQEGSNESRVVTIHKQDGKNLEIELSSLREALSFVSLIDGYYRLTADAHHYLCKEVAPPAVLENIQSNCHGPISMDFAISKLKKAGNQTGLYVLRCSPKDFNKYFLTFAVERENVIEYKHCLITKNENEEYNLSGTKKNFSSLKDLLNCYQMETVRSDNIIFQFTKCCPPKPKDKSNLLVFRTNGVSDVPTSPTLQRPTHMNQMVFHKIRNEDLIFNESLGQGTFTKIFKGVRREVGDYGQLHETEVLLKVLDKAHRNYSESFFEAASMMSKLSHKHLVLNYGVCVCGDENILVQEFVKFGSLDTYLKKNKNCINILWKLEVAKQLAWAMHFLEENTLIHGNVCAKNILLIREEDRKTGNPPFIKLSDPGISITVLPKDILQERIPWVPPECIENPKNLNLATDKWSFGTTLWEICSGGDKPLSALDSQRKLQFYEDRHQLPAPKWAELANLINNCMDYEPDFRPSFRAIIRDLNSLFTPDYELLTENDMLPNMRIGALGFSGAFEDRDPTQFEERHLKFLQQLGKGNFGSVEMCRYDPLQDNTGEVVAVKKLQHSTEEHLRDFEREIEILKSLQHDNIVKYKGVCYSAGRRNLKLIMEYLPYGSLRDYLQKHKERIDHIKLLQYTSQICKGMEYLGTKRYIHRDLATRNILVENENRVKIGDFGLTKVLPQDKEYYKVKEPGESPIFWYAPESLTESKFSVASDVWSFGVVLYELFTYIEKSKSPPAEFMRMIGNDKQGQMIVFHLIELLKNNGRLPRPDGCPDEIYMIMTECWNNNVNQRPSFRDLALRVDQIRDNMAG", "summary_of_the_method": "as §1"}, "CCT2": {"target": "T2, CCT2 (Homo sapiens, UniProt P78371)", "T2 sequence (P78371 1-535)": "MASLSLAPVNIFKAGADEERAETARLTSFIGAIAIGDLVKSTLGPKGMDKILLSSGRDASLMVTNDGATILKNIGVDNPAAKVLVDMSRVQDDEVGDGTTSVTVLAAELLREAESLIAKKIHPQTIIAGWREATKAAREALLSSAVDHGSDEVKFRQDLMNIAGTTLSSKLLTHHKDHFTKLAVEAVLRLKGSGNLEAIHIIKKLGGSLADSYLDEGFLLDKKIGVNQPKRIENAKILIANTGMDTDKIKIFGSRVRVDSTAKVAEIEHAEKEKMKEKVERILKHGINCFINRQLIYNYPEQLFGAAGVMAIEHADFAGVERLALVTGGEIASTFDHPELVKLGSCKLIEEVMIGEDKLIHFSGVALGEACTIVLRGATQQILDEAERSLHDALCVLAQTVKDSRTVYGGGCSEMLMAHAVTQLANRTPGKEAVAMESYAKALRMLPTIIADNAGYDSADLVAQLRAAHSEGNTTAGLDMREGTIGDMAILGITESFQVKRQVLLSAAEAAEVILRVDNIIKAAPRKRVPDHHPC", "summary_of_the_method": "as §1"}, "ABL1": {"target": "ABL1 (Homo sapiens, UniProt P00519)", "sequence (P00519 whole entry)": "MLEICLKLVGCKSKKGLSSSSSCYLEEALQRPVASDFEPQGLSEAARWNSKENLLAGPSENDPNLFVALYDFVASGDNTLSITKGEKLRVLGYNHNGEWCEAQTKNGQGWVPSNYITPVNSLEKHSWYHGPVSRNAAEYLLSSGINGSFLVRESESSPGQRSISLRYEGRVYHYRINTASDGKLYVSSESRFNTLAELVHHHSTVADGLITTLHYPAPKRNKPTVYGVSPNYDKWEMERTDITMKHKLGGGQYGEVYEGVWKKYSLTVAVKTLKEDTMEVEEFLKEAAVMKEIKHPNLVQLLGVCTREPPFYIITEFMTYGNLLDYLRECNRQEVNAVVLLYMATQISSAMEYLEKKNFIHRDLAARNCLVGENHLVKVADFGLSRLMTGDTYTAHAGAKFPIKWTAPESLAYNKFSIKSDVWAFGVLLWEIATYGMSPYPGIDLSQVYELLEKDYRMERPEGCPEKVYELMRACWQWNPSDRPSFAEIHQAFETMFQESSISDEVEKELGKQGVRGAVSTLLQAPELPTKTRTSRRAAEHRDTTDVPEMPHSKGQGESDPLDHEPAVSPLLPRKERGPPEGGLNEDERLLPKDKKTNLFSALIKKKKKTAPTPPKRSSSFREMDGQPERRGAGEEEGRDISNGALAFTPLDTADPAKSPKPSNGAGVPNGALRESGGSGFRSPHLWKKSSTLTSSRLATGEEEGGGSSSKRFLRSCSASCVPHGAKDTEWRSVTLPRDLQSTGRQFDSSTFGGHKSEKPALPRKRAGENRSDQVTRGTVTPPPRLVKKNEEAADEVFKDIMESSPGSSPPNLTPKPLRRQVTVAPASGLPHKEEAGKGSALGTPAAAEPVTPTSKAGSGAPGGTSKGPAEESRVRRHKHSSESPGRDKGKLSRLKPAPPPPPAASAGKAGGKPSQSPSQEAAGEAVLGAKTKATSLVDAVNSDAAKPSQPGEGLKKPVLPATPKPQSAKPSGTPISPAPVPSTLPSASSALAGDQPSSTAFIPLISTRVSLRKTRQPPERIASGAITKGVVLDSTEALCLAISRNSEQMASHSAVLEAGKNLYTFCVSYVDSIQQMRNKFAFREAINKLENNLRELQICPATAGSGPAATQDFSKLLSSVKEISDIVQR", "summary_of_the_method": "as §1"}}}
{"molecule": "Cc1ccc(C(=O)Nc2ccc(CN3CCN(CCCN)CC3)c(C(F)(F)F)c2)cc1C#Cc1cnc2cccnn12", "note": "[c-ponatinib]", "values": [{"measurement": "Av. SC comp.", "setting": "HSPA5; + free ponatinib", "result": 2.75}, {"measurement": "Total SC comp.", "setting": "HSPA5; + free ponatinib", "result": 11}, {"measurement": "Av. SC", "setting": "HSPA5; no competitor", "result": 7}, {"measurement": "Total SC", "setting": "HSPA5; no competitor", "result": 28}, {"measurement": "Av. SC comp.", "setting": "PAG1; + free ponatinib", "result": 0}, {"measurement": "Total SC comp.", "setting": "PAG1; + free ponatinib", "result": 0}, {"measurement": "Av. SC", "setting": "PAG1; no competitor", "result": 2}, {"measurement": "Total SC", "setting": "PAG1; no competitor", "result": 8}, {"measurement": "Av. SC comp.", "setting": "MAPKAPK2; + free ponatinib", "result": 0}, {"measurement": "Total SC comp.", "setting": "MAPKAPK2; + free ponatinib", "result": 0}, {"measurement": "Av. SC", "setting": "MAPKAPK2; no competitor", "result": 23.5}, {"measurement": "Total SC", "setting": "MAPKAPK2; no competitor", "result": 94}, {"measurement": "Av. SC comp.", "setting": "HSPA9; + free ponatinib", "result": 0}, {"measurement": "Total SC comp.", "setting": "HSPA9; + free ponatinib", "result": 0}, {"measurement": "Av. SC", "setting": "HSPA9; no competitor", "result": 3.25}, {"measurement": "Total SC", "setting": "HSPA9; no competitor", "result": 13}, {"measurement": "Av. SC comp.", "setting": "JAK2; + free ponatinib", "result": 0}, {"measurement": "Total SC comp.", "setting": "JAK2; + free ponatinib", "result": 0}, {"measurement": "Av. SC", "setting": "JAK2; no competitor", "result": 2.25}, {"measurement": "Total SC", "setting": "JAK2; no competitor", "result": 9}, {"measurement": "Av. SC comp.", "setting": "CCT2; + free ponatinib", "result": 0}, {"measurement": "Total SC comp.", "setting": "CCT2; + free ponatinib", "result": 0}, {"measurement": "Av. SC", "setting": "CCT2; no competitor", "result": 3.5}, {"measurement": "Total SC", "setting": "CCT2; no competitor", "result": 14}, {"measurement": "Av. SC comp.", "setting": "ABL1; + free ponatinib", "result": 0}, {"measurement": "Total SC comp.", "setting": "ABL1; + free ponatinib", "result": 0}, {"measurement": "Av. SC", "setting": "ABL1; no competitor", "result": 13.75}, {"measurement": "Total SC", "setting": "ABL1; no competitor", "result": 55}]}
